Assay results taken from PubChem BioAssay (NCI).
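Abbreviation: GI50, concentration required for 50% inhibition of growth. TGI denotes the concentration required for complete inhibition of growth.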

How the values were obtained:
Test in all cases: NCI tumour cell line growth inhibition, 384-well format
[1] = test system: NCI/ADR-RES ovarian
[2] = test system: MALME-3M melanoma
[3] = test system: SW-620 colon
[4] = test system: M14 melanoma
[5] = test system: SNB-75 CNS
[6] = test system: TK-10 renal
[7] = test system: SK-OV-3 ovarian
[8] = test system: OVCAR-4 ovarian
[9] = test system: CCRF-CEM leukemia
[10] = test system: CAKI-1 renal
[11] = test system: OVCAR-8 ovarian
[12] = test system: NCI-H522 lung
[13] = test system: UACC-257 melanoma
[14] = test system: SR leukemia
[15] = test system: NCI-H226 lung
[16] = test system: MDA-MB-231 breast
[17] = test system: EKVX NSCLC
[18] = test system: SN12C renal
[19] = test system: UACC-62 melanoma
[20] = test system: SF-539 CNS
[21] = test system: HOP-62 NSCLC
[22] = test system: U251 glioblastoma
[23] = test system: SK-MEL-28 melanoma
[24] = test system: A549 NSCLC
[25] = test system: BT-549 breast
[26] = test system: COLO 205 colon
[27] = test system: HL-60(TB) leukemia
[28] = test system: 786-0 renal

## COc1cc(OC)cc(N2CCN(C(=O)Nc3nc4cc(F)ccc4nc3OC)CC2)c1
[1]
  GI50: 14 nM
  TGI: 32.1 nM
[2]
  GI50: 24.7 nM
  TGI: 14800 nM
[3]
  GI50: 36.5 nM
  TGI: 18800 nM
[4]
  GI50: 15.7 nM
  TGI: 38.2 nM
[5]
  GI50: 23.4 nM
  TGI: 127 nM
[6]
  GI50: 57.1 nM
  TGI: 23100 nM
[7]
  GI50: 35.1 nM
  TGI: 11700 nM
[8]
  GI50: 314 nM
  TGI: 31700 nM
[9]
  GI50: 18.7 nM
  TGI: 33.3 nM
[10]
  GI50: 15.8 nM
  TGI: 15100 nM
[11]
  GI50: 27.6 nM
  TGI: 91.2 nM
[12]
  GI50: < 10 nM
  TGI: 22 nM
[13]
  GI50: 37.2 nM
  TGI: 20100 nM
[14]
  GI50: < 10 nM
[15]
  GI50: 18.6 nM
  TGI: 70.8 nM
[16]
  GI50: 54.5 nM
  TGI: 84700 nM
[17]
  GI50: 27.5 nM
  TGI: 14600 nM
[18]
  GI50: 28 nM
  TGI: 16200 nM
[19]
  GI50: < 10 nM
  TGI: 15000 nM
[20]
  GI50: 18.2 nM
  TGI: 49.5 nM
[21]
  GI50: 21.8 nM
  TGI: 1700 nM
[22]
  GI50: 32.7 nM
  TGI: 12100 nM
[23]
  GI50: 120 nM
  TGI: 22300 nM
[24]
  GI50: 38.2 nM
  TGI: 18500 nM
[25]
  GI50: 23.7 nM
  TGI: 68.5 nM
[26]
  GI50: 27.7 nM
  TGI: 84.8 nM
[27]
  GI50: 16.5 nM
  TGI: 30.6 nM
[28]
  GI50: 28.4 nM
  TGI: 267 nM
